Source: patent US20140228381A1, “METHODS OF CONTROLLING INSECTS OF THE FAMILY CURCOLIONIDAE” (SYNGENTA PARTICIPATIONS AG, priority 2011, published 2014)

Legend:
Assay type in all cases: in vivo
Heliothis virescens = assay: BP80 Heliothis virescens ovo-larvicide, feeding/contact activity, curative; details: eggs on artificial diet, 5 days incubation
Experimental: (§1) BP80s (break points for 80% mortality) were obtained for Pyrifluquinazon and Flonicamid against the following pests: Heliothis virescens, Plutella xylostella, Tetranychus urticae and Cydia pomonella. The specific method used for each pest is outlined below. Heliothis virescens (Tobacco Budworm): ovo-larvicide, feeding/contact activity, curative Eggs (0-24 h old) are placed in a 24-well microtiter plate on artificial diet and treated with test solutions by pipetting. After an incubation period of 5 days, samples are checked for egg mortality and larval mortality. Selectable application rates: 500-0.05 ppm Plutella xylostella (Diamondback Moth): larvicide, feeding/residual contact activity, preventative 24-well microtiter plates with artificial diet are treated with test solutions by pipetting. After drying, the plates are infested with L2 larvae (10-15 per well). After an incubation period of 5 days, samples are checked for larval mortality. Selectable application rates: 500-0.05 ppm Tetranychus urticae (Two-Spotted Spider Mite): Mixed Population feeding/contact activity, preventative Bean leaf discs on agar in 24-well microtiter plates are sprayed with test solutions. After drying, the leaf discs are infested with mite populations of mixed ages. 8 days later, discs are checked for egg mortality, larval mortality, and adult mortality. […]

Plutella xylostella = assay: BP80 Plutella xylostella larvicide, feeding/residual contact activity, preventative; details: L2 larvae on artificial diet, 5 days incubation
Experimental: as §1

Tetranychus urticae = assay: BP80 Tetranychus urticae mixed population, feeding/contact activity, preventative; details: bean leaf discs, mixed ages, 8 days
Experimental: as §1

Cydia pomonella = assay: BP80 Cydia pomonella larvicide, contact/feeding activity, preventative; details: L1 larvae on diet cubes, 14 days after infestation
Experimental: as §1

Anthonomus grandis [1] = assay: B.2 field trial, insecticidal activity against Anthonomus grandis in cotton; details: 75 g ai/ha, 50% WG
Experimental: Trials were carried out in a randomized complete block design, each comprising of 4 replicates, plot size of 30 m^2. Application was carried out with a pressurized knap sack sprayer. 200 liters of spray volume was applied per ha. 4 applications were carried out in 5 days interval. Flonicamid was applied as a 50% WG Efficacy was evaluated 2 days after 2nd application and 4 days after 4th application. 50 squares were counted per plot and the % reduction of damaged squares in comparison to untreated control was calculated after the ABBOTT formula.

Anthonomus grandis [2] = assay: B.3 field trial, insecticidal activity against Anthonomus grandis in cotton; details: 75 g ai/ha, 50% WG
Experimental: (§2) Trials were carried out in a randomized complete block design, each comprising of 4 replicates and a plot size of 30 m^2. Application was carried out with a pressurized knap sack sprayer. 200 liters of spray volume was applied per ha. 3 applications were carried out in 5 days interval, the first application at BBCH 51. Flonicamid was applied as a 50% WG. Efficacy was evaluated 2 days after 2nd and 5 days after 3rd application. 50 squares were counted per plot and the percentage reduction of damaged squares in comparison to untreated control was calculated after the ABBOTT formula.

Anthonomus grandis [3] = assay: B.4 field trial, insecticidal activity against Anthonomus grandis in cotton
Experimental: as §2, with “4 replicates,” for “4 replicates and a”, “ha. 4” for “ha. 3”, “50% WG, and Pyrifluquinaon as a 10% WP.” for “50% WG.”, “after 4th” for “after 2nd”, “and 7” for “and 5”, “after 4th” for “after 3rd”

Anthonomus adults = assay: B.5 immobility effect, contact spray on Anthonomus adults; details: 300 ppm contact spray; for no of insects at infestation site (A) / no of insects capable of leaving the infestation site (B) + (C) / no of insects in test arena, not on diet (C) / no of insects on diet (B): 50 beetles
Experimental: In this test 50 freshly hatched beetles were treated with FLON (IF 050 formulation) and PYQU (VVG 50 formulation). Using a turntable spray, 300 ppm of a 200 g ai/ha formulation were sprayed directly on the beetles. The control beetles (“check”) were sprayed with water. The petri dish was then placed in the test arena next to which was placed a diet situated 23 cm above ground. After a certain time periods shown below in the table, the number of beetles on different sites was counted: […]

Structure (SMILES): N#CCNC(=O)c1cnccc1C(F)(F)F [Flonicamid, N-(cyanomethyl)-4-(trifluoromethyl)-3-pyridinecarboxamide]
- BP80 (break point for 80% mortality) (Heliothis virescens): >200 ppm
- BP80 (break point for 80% mortality) (Plutella xylostella): >200 ppm
- BP80 (break point for 80% mortality) (Tetranychus urticae): >200 ppm
- BP80 (break point for 80% mortality) (Cydia pomonella): >50 ppm
- % reduction of damaged squares (Anthonomus grandis [1]; 2 days after 2nd application): 50%
- % reduction of damaged squares (Anthonomus grandis [1]; 4 days after 4th application): 57%
- % reduction of damaged squares (Anthonomus grandis [2]; 2 days after 2nd application): 67%
- % reduction of damaged squares (Anthonomus grandis [2]; 5 days after 3rd application): 52%
- % reduction of damaged squares (Anthonomus grandis [3]; 75 g ai/ha, 2 days after 4th application): 65%
- % reduction of damaged squares (Anthonomus grandis [3]; 75 g ai/ha, 7 days after 4th application): 50%
- % reduction of damaged squares (Anthonomus grandis [3]; 150 g ai/ha, 2 days after 4th application): 81%
- % reduction of damaged squares (Anthonomus grandis [3]; 150 g ai/ha, 7 days after 4th application): 52%
- immobility effect disappeared with time (rank order) (Anthonomus adults): PYQU>FLON
- no of insects at infestation site (A) (Anthonomus adults; 3 hours): 37
- no of insects capable of leaving the infestation site (B) + (C) (Anthonomus adults; 3 hours): 13
- no of insects in test arena, not on diet (C) (Anthonomus adults; 3 hours): 11
- no of insects on diet (B) (Anthonomus adults; 3 hours): 2
- no of insects at infestation site (A) (Anthonomus adults; 6 hours): 44
- no of insects capable of leaving the infestation site (B) + (C) (Anthonomus adults; 6 hours): 6
- no of insects in test arena, not on diet (C) (Anthonomus adults; 6 hours): 3
- no of insects on diet (B) (Anthonomus adults; 6 hours): 3
- no of insects at infestation site (A) (Anthonomus adults; 24 hours): 37
- no of insects capable of leaving the infestation site (B) + (C) (Anthonomus adults; 24 hours): 13
- no of insects in test arena, not on diet (C) (Anthonomus adults; 24 hours): 6
- no of insects on diet (B) (Anthonomus adults; 24 hours): 7
- no of insects at infestation site (A) (Anthonomus adults; 32 hours): 21
- no of insects capable of leaving the infestation site (B) + (C) (Anthonomus adults; 32 hours): 29
- no of insects in test arena, not on diet (C) (Anthonomus adults; 32 hours): 3
- no of insects on diet (B) (Anthonomus adults; 32 hours): 26
- no of insects at infestation site (A) (Anthonomus adults; 48 hours): 14
- no of insects capable of leaving the infestation site (B) + (C) (Anthonomus adults; 48 hours): 36
- no of insects in test arena, not on diet (C) (Anthonomus adults; 48 hours): 6
- no of insects on diet (B) (Anthonomus adults; 48 hours): 30
- no of insects at infestation site (A) (Anthonomus adults; 52 hours): 10
- no of insects capable of leaving the infestation site (B) + (C) (Anthonomus adults; 52 hours): 40
- no of insects in test arena, not on diet (C) (Anthonomus adults; 52 hours): 3
- no of insects on diet (B) (Anthonomus adults; 52 hours): 37
- no of insects at infestation site (A) (Anthonomus adults; 72 hours): 9
- no of insects capable of leaving the infestation site (B) + (C) (Anthonomus adults; 72 hours): 41
- no of insects in test arena, not on diet (C) (Anthonomus adults; 72 hours): 7
- no of insects on diet (B) (Anthonomus adults; 72 hours): 34
- no of insects at infestation site (A) (Anthonomus adults; 78 hours): 5
- no of insects capable of leaving the infestation site (B) + (C) (Anthonomus adults; 78 hours): 45
- no of insects in test arena, not on diet (C) (Anthonomus adults; 78 hours): 6
- no of insects on diet (B) (Anthonomus adults; 78 hours): 39
- no of insects at infestation site (A) (Anthonomus adults; 144 hours): 15
- no of insects capable of leaving the infestation site (B) + (C) (Anthonomus adults; 144 hours): 35
- no of insects in test arena, not on diet (C) (Anthonomus adults; 144 hours): 3
- no of insects on diet (B) (Anthonomus adults; 144 hours): 32
- no of insects at infestation site (A) (Anthonomus adults; 150 hours): 5
- no of insects capable of leaving the infestation site (B) + (C) (Anthonomus adults; 150 hours): 45
- no of insects in test arena, not on diet (C) (Anthonomus adults; 150 hours): 1
- no of insects on diet (B) (Anthonomus adults; 150 hours): 44

Structure (SMILES): CC(=O)N1C(=O)N(NCc2cccnc2)Cc2cc(C(F)(C(F)(F)F)C(F)(F)F)ccc21 [Pyrifluquinazon, 1-acetyl-3,4-dihydro-3-[(3-pyridinylmethyl)amino]-6-[1,2,2,2-tetrafluoro-1-(trifluoromethyl)ethyl]-2(1H)-quinazolinone]
- BP80 (break point for 80% mortality) (Heliothis virescens): >200 ppm
- BP80 (break point for 80% mortality) (Plutella xylostella): >200 ppm
- BP80 (break point for 80% mortality) (Tetranychus urticae): >200 ppm
- % reduction of damaged squares (Anthonomus grandis [3]; 100 g ai/ha, 2 days after 4th application): 77%
- % reduction of damaged squares (Anthonomus grandis [3]; 100 g ai/ha, 7 days after 4th application): 37%
- % reduction of damaged squares (Anthonomus grandis [3]; 200 g ai/ha, 2 days after 4th application): 85%
- % reduction of damaged squares (Anthonomus grandis [3]; 200 g ai/ha, 7 days after 4th application): 48%
- immobility effect disappeared with time (rank order) (Anthonomus adults): PYQU>FLON
- no of insects at infestation site (A) (Anthonomus adults; 3 hours): 45
- no of insects capable of leaving the infestation site (B) + (C) (Anthonomus adults; 3 hours): 5
- no of insects in test arena, not on diet (C) (Anthonomus adults; 3 hours): 1
- no of insects on diet (B) (Anthonomus adults; 3 hours): 4
- no of insects at infestation site (A) (Anthonomus adults; 6 hours): 45
- no of insects capable of leaving the infestation site (B) + (C) (Anthonomus adults; 6 hours): 5
- no of insects in test arena, not on diet (C) (Anthonomus adults; 6 hours): 2
- no of insects on diet (B) (Anthonomus adults; 6 hours): 3
- no of insects at infestation site (A) (Anthonomus adults; 24 hours): 39
- no of insects capable of leaving the infestation site (B) + (C) (Anthonomus adults; 24 hours): 11
- no of insects in test arena, not on diet (C) (Anthonomus adults; 24 hours): 3
- no of insects on diet (B) (Anthonomus adults; 24 hours): 8
- no of insects at infestation site (A) (Anthonomus adults; 32 hours): 27
- no of insects capable of leaving the infestation site (B) + (C) (Anthonomus adults; 32 hours): 23
- no of insects in test arena, not on diet (C) (Anthonomus adults; 32 hours): 4
- no of insects on diet (B) (Anthonomus adults; 32 hours): 19
- no of insects at infestation site (A) (Anthonomus adults; 48 hours): 28
- no of insects capable of leaving the infestation site (B) + (C) (Anthonomus adults; 48 hours): 22
- no of insects in test arena, not on diet (C) (Anthonomus adults; 48 hours): 4
- no of insects on diet (B) (Anthonomus adults; 48 hours): 18
- no of insects at infestation site (A) (Anthonomus adults; 52 hours): 30
- no of insects capable of leaving the infestation site (B) + (C) (Anthonomus adults; 52 hours): 20
- no of insects in test arena, not on diet (C) (Anthonomus adults; 52 hours): 6
- no of insects on diet (B) (Anthonomus adults; 52 hours): 14
- no of insects at infestation site (A) (Anthonomus adults; 72 hours): 30
- no of insects capable of leaving the infestation site (B) + (C) (Anthonomus adults; 72 hours): 20
- no of insects in test arena, not on diet (C) (Anthonomus adults; 72 hours): 6
- no of insects on diet (B) (Anthonomus adults; 72 hours): 14
- no of insects at infestation site (A) (Anthonomus adults; 78 hours): 24
- no of insects capable of leaving the infestation site (B) + (C) (Anthonomus adults; 78 hours): 26
- no of insects in test arena, not on diet (C) (Anthonomus adults; 78 hours): 4
- no of insects on diet (B) (Anthonomus adults; 78 hours): 22
- no of insects at infestation site (A) (Anthonomus adults; 144 hours): 15
- no of insects capable of leaving the infestation site (B) + (C) (Anthonomus adults; 144 hours): 35
- no of insects in test arena, not on diet (C) (Anthonomus adults; 144 hours): 4
- no of insects on diet (B) (Anthonomus adults; 144 hours): 31
- no of insects at infestation site (A) (Anthonomus adults; 150 hours): 15
- no of insects capable of leaving the infestation site (B) + (C) (Anthonomus adults; 150 hours): 35
- no of insects in test arena, not on diet (C) (Anthonomus adults; 150 hours): 2
- no of insects on diet (B) (Anthonomus adults; 150 hours): 33
